Key:
[1] = tested on: platelet P-selectin expression; assay: ADP-induced platelet P-selectin expression in human washed platelets; assay type: cell-based; conditions: ADP 10 μM, GR144053 10 μM, compound B 10 nM, Mean ± se (n = 3), Control 13.1 ± 3.3
Protocol: P-selectin expression on the platelet membrane surface plays an important role in platelet-leukocyte-conjugate formation and there is increasing evidence that such interactions play an important role in both acute thrombosis and in the inflammatory aetiology of progressive atheroscerosis. The effect of a P2T-receptor antagonist (compound B) on ADP (10 μM)-induced platelet P-selectin expression was investigated in human washed platelets. The effect of compound B (10 nM) was compared with that of the GPIIb/IIIa antagonist, GR144053 (10 μM, Foster et al (1993) Thromb Haemostas; 69(6):559, synthesized in AstraZeneca R & D, Charnwood). These concentrations are 4 (compound B)—and 600 (GR144053)—fold higher than the respective IC50 values for inhibition of ADP-induced platelet aggregation in this system.

[2] = tested on: ADP-induced platelet aggregation; assay: ADP-induced platelet aggregation, whole blood impedance aggregometry; assay type: cell-based; conditions: human blood ex vivo; for Aggregation, ADP 10 μM, −compound A: n = 7-8
Protocol: Human Blood In Vitro—Compound A and Clopidogrel
Compound A (500 nM final concentration) was added to blood from healthy human volunteers receiving clopidogrel (Sanofi-Winthrop, 75 mg/day for 11 days). ADP-induced platelet aggregation (+/−compound A) was measured using whole blood impedance aggregometry.

| Structure (SMILES) | P-selectin expression (% positive cells) [1] [% positive cells] | Inhibition of the ADP response (in words) ([2]; clopidogrel alone, 75 mg/day for 11 days) | Aggregation, ADP 10 μM, −compound A ([2]; oral clopidogrel 75 mg/day for 1 day, mean ± SD) [ohms] | Aggregation, ADP 10 μM, −compound A ([2]; oral clopidogrel 75 mg/day for 2 days, mean ± SD) [ohms] | Aggregation, ADP 10 μM, −compound A ([2]; oral clopidogrel 75 mg/day for 3 days, mean ± SD) [ohms] | Aggregation, ADP 300 μM, −compound A ([2]; oral clopidogrel 75 mg/day for 3 days, n=1) | Aggregation, ADP 10 μM, −compound A ([2]; oral clopidogrel 75 mg/day for 11 days, mean ± SD) [ohms] | Aggregation, ADP 300 μM, −compound A ([2]; oral clopidogrel 75 mg/day for 11 days, mean ± SD, n=3) |
| --- | --- | --- | --- | --- | --- | --- | --- | --- |
| Cl.Cl.Cl.N=C(N)c1ccc(N2CCN(C3CCN(CC(=O)O)CC3)CC2)cc1 [GR144053] | 17.7 ± 1.7 | – | – | – | – | – | – | – |
| COC(=O)[C@H](c1ccccc1Cl)N1CCc2sccc2C1 [clopidogrel] | – | slowly developing, incomplete inhibition | 13.8 ± 2.3 | 11.8 ± 3.4 | 10.2 ± 4.5 | 13.9^(n=1) ohms | 8.2 ± 4.4 | 11.4 ± 5.2^(n=3) ohms |
